Experimental data as given in publication PMC10900215 (JACS Au, 2024).
Values joined by “and” are separate entries in the source; they are usually repeats but may differ in a detail not shown here. Identical values can stand only once.

How the values were obtained:
[1] = target: T1, METTL3 (Homo sapiens, UniProt Q86U44); assay: Cellular degradation assay (Western blot), METTL3 in MOLM-13; type: cell-based; details: MOLM-13, 24 h, 2 μM compound
T1 construct: METTL3–14 degradation up to 70% of the endogenous level; endogenous in cells; host or cells: MOLM-13, PC3, DU145
T1 sequence (Q86U44 2-580 limits assumed): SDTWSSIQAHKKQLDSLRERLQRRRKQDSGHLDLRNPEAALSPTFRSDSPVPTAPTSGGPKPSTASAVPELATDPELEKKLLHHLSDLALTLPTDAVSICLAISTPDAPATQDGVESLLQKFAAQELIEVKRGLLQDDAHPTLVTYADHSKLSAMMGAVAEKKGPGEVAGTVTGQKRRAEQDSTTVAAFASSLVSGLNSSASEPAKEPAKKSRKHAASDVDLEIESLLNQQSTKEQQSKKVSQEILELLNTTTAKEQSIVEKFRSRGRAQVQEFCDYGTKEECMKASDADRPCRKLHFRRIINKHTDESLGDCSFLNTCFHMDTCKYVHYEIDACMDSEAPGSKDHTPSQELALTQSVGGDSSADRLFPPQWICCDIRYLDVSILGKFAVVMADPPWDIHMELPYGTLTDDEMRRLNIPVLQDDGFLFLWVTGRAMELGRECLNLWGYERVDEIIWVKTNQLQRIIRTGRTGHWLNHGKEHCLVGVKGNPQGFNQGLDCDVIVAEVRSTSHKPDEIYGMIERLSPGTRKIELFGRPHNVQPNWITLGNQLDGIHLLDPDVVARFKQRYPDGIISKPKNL
T1 sequence (Q9HCE5 whole entry partner): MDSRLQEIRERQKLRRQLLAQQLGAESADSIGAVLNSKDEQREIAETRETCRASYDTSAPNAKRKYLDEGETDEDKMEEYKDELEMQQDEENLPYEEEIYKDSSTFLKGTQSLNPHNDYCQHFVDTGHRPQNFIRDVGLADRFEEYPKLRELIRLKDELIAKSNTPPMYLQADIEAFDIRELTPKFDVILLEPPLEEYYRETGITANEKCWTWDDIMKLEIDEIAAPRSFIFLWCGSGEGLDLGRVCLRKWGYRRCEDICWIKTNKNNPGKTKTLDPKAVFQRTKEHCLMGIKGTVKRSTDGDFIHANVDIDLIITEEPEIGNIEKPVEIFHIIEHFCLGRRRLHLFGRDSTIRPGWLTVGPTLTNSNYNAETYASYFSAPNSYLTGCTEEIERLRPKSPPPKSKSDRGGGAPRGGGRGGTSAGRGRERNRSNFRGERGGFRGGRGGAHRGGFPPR
Procedure: (§1) MOLM-13, NOMO-1, THP-1, Kasumi-1, PC3, and DU145 cell lines were obtained from DSMZ-German Collection of Microorganisms and Cell Cultures GmbH. Cells were cultured in RPMI 1640 medium (11875093, Thermo Fisher Scientific) containing 10% FBS (16140071, Thermo Fisher Scientific) and 1% penicillin-streptomycin (15140122, Thermo Fisher Scientific) in 5% CO2 at 37 °C in a humidified incubator, with maintained cell densities at 0.5–1 × 10^6 cells/mL. All cell lines were tested negative for mycoplasma contamination (PCR-based assay by Microsynth, Switzerland).
(§2) METTL3 (and METTL14) protein degradation was monitored by Western blot. Cells were treated with the indicated concentration of PROTACs or DMSO control (0.1% (v/v)) for 24h, 37 °C with 5% CO2. Samples were then collected and lysed with RIPA buffer with added protease inhibitors (11697498001, Roche). After SDS-PAGE, proteins were transferred to a nitrocellulose membrane, blocked (with 5% milk, 0.5% BSA in TBST buffer), and incubated overnight with primary antibodies. The following antibodies were used: GAPDH (no. 2118, Cell Signaling, 1:4000), β-actin (ab8226, Abcam, 1:2000), METTL3 (ab195352, Abcam, 1:1000), and METTL14 (ab220031, Abcam, 1:1000). Membranes were scanned using an LI-COR Odyssey DLx imager after incubation with appropriate secondary antibodies (antimouse IgG IRDye 680RD (926–68072, LI-COR, 1:10000) and goat anti-Rabbit IgG IRDye 800CW (926–32211, LI-COR, 1:10000)). Densitometry was performed in Image Studio Lite software and analyzed in GraphPad Prism 9.

[2] = test system: METTL14; assay: Cellular degradation assay (Western blot), METTL14 in MOLM-13; type: cell-based, human; details: MOLM-13, 24 h, 2 μM compound
Procedure: as §1, §2

[3] = target: T2, ternary complex CRBN/PROTAC/METTL3–14 (Homo sapiens, UniProt Q86U44+Q96SW2); assay: FRET-based ternary complex formation assay (TCFA); type: binding; details: for TCFA amplitude (mean ± SEM): Hook curve amplitude, fraction of the maximum of compound 16; for ECmax (nM) ± SD: PROTAC concentration at the maximum of the signal in the TCFA; for ECmax: TCFA, peak of the Hook curve
T2 construct: methyltransferase domains (MTD) of METTL3 (residues 354–580); His6 (N, cleaved yes); made in house; host or cells: METTL3-MTD/METTL14-MTD: baculovirus/Sf9; CRBN-TBD: E. coli Rosetta (DE3), co-expressed with BirA
T2 sequence (Q86U44 354-580): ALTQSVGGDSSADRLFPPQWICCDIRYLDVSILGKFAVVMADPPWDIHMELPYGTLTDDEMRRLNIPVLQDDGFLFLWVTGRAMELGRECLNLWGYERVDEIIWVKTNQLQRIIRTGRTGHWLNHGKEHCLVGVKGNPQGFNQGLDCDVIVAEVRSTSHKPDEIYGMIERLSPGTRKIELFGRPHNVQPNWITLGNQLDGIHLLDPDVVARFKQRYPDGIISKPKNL
T2 sequence (Q9HCE5 107-395 partner limits assumed): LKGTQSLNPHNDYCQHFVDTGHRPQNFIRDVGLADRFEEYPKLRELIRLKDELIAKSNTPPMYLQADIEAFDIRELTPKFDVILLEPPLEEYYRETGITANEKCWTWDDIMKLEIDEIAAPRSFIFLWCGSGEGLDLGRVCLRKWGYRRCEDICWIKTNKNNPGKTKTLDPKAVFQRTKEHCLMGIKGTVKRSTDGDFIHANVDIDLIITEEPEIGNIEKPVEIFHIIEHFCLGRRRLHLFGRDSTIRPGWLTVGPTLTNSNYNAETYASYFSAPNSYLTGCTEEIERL
T2 sequence (Q96SW2 318-442): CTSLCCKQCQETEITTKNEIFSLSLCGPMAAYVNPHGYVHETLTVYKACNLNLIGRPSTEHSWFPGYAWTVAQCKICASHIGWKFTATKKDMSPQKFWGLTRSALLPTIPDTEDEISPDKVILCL
Procedure: For protein expression, suspension cultures of Sf9 cells in […] medium (Thermo Fisher) were infected at a density of 2 × 10^6 mL^–1. […] The complex was further purified by size exclusion chromatography using a Superdex 200 Increase 10/300 GL column (Cytiva) in 20 mM Tris-Cl, pH 8.0, and 200 mM KCl. The complex was aliquoted and flash-frozen in liquid nitrogen and stored at −80 °C until further use.
Ternary complex formation between the PROTACs, METTL3, and CRBN was quantified by a homogeneous time-resolved fluorescence (HTRF)-based enzyme assay. […] Curves of titrations with the PROTACs were plotted in GraphPad Prism 9.5.1 and fitted with a Gaussian function, if appropriate. […] CRBN^TBD-Avi(biotin) was used at a final concentration of 10 nM. […] Anti-GST Eu^3+-labeled antibody (Cisbio, 61GSTKLB) was used at a final concentration of 0.8 nM. The final reaction volume was 20 μL in 50 mM HEPES (pH 7.5), 150 mM NaCl, 0.1% BSA, 100 mM KF. […] The ratio of the emissions [drawing 1] was considered for further analysis. […] The concentrations resulting in the maximum signal (ECmax) and the amplitudes of the Hook curves were determined from the parameters of the Gaussian fit (if appropriate) or as the coordinates of the data-point with the highest TR-FRET signal.
For the ternary complex formation assay (TCFA), one of the protein partners must have a GST-tag and the other a biotin-tag.

[4] = Cell viability assay (CellTiter-Glo) on MOLM-13; type: cell-based; details: human, MOLM-13 cells, average of two biological replicates; for viability at 72 h, […]: 2.5 µM
Procedure: as §1
Cell viability was determined using a CellTiter-Glo luminescent cell viability assay (Promega) based on the detection of ATP according to the manufacturer’s instructions. 100 μL of the reagent was added to each well and incubated for 10 min at room temperature. […] Background luminescence value was obtained from wells containing the CellTiter-Glo reagent and medium without cells. The resulting data was analyzed in GraphPad Prism 9.

[5] = target: T3, METTL3-14 (Homo sapiens, UniProt Q86U44); assay: Cellular degradation assay (Western blot), METTL3 and/or METTL14 (METTL3–14) in MOLM-13; type: cell-based; set-up: METTL3–14 degradation up to 70% of the endogenous level; endogenous in cells; host or cells: MOLM-13, KASUMI-1, THP-1, NOMO-1; details: MOLM-13, 2 μM, 24 h, Western blot
Procedure: MOLM-13, NOMO-1, THP-1, Kasumi-1, PC3, and DU145 cell lines were obtained from DSMZ-German Collection of Microorganisms and Cell Cultures GmbH. […] All cell lines were tested negative for mycoplasma contamination (PCR-based assay by Microsynth, Switzerland).
METTL3 (and METTL14) protein degradation was monitored by Western blot. Cells were treated with the indicated concentration of PROTACs or DMSO control (0.1% (v/v)) for 24h, 37 °C with 5% CO2. […] After SDS-PAGE, proteins were transferred to a nitrocellulose membrane, blocked (with 5% milk, 0.5% BSA in TBST buffer), and incubated overnight with primary antibodies. […] Densitometry was performed in Image Studio Lite software and analyzed in GraphPad Prism 9.
Target sequence in this assay (Q86U44 2-580 limits assumed): as the sequence (Q86U44 2-580 limits assumed) above
Target sequence in this assay (Q9HCE5 whole entry partner): as the sequence (Q9HCE5 whole entry partner) above

[6] = target: T3, METTL3-14; assay: biochemical; set-up: with the full-length complex, the recombinant complex construct pFastBacDual-StrepII-GFP-TEV-METTL3-His-TEV-METTL14 was expressed; StrepII (N); GFP (N); TEV site (N); made in house; host or cells: baculovirus/Sf9 insect cells; details: inhibition of catalytic activity of METTL3-14, binary FRET assay
Source text: For determining the half maximal inhibitory concentration (IC50) with the full-length complex, the recombinant complex construct pFastBacDual-StrepII-GFP-TEV-METTL3-His-TEV-METTL14 was expressed using the baculovirus/Sf9 insect cell expression system and purified as described previously.[21]
The inhibitory potencies of the PROTACs for METTL3 were quantified by a homogeneous time-resolved fluorescence (HTRF)-based enzyme assay as previously described.[40]
Target sequence in this assay (Q86U44 whole entry): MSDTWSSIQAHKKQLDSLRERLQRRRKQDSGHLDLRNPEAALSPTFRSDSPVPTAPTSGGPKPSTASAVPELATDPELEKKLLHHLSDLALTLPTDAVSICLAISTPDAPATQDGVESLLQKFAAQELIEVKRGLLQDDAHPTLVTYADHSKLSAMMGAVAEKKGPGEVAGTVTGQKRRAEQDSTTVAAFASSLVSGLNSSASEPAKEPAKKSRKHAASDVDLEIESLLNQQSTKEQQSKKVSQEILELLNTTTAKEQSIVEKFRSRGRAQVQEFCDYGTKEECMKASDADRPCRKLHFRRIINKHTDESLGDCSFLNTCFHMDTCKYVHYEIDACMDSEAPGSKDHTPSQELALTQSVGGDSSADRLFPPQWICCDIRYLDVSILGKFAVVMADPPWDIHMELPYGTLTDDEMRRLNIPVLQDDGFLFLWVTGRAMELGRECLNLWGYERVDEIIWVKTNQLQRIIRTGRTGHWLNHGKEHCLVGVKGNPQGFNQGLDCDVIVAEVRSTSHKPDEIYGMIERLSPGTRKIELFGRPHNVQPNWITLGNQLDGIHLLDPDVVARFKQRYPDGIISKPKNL
Target sequence in this assay (Q9HCE5 whole entry, further chain): as the sequence (Q9HCE5 whole entry partner) above

Structure (SMILES)	MOLM-13 West. blot at 24h 2 μM comp conc. Degradation (%) of METTL3 [1]	MOLM-13 West. blot at 24h 2 μM comp conc. Degradation (%) of METTL14 [2]	TCFA amplitude (mean ± SEM) [3]	ECmax (nM) ± SD [3] [nM]	ECmax [3]	viability at 72 h, 0.6 µM [4] [%]	viability at 72 h, 1.25 µM [4] [%]	viability at 72 h, […] [4] [%]	viability at 72 h, 5 µM [4] [%]	viability at 72 h, 10 µM [4] [%]	degradation of METTL3 and/or METTL14 [5]	IC50 [6] [nM]
CC1(C)CCN(Cc2cc(F)c(N3CC(=O)NC4(CCN(c5cc(NCCN6CCN(C(=O)CCCNc7cccc8c7C(=O)N(C7CCC(=O)NC7=O)C8=O)CC6)ncn5)CC4)C3)cc2F)CC1 (stereo not drawn) [Compound 29]	42 ± 14%	51 ± 11%	1.0 ± 0.0	80 ± 0	submicromolar	93.7	93.5	93.4	94.5	87.4	≥ 50%	–
CC1(C)CCN(Cc2cc(F)c(N3CC(=O)NC4(CCN(c5cc(NCCN6CCN(C(=O)CCCCCCCNc7cccc8c7C(=O)N(C7CCC(=O)NC7=O)C8=O)CC6)ncn5)CC4)C3)cc2F)CC1 (stereo not drawn) [Compound 31]	49 ± 33%	55 ± 24%	0.9 ± 0.0	110 ± 40	submicromolar	95.4	88.3	88	85.2	80.2	≥ 50%	–
CN1C(=O)CCC(N2C(=O)c3cccc(NCCCCCC(=O)N4CCC(CNc5cc(N6CCC7(CC6)CN(c6cc(F)c(CN8CCC(C)(C)CC8)cc6F)CC(=O)N7)ncn5)CC4)c3C2=O)C1=O (stereo not drawn) [me-24]	–	–	–	–	–	–	–	–	–	–	did not show any METTL3–14 degradation	–
CC1(C)CCN(Cc2cc(F)c(N3CC(=O)NC4(CCN(c5cc(NCc6cccc(CNC(=O)CCCCCNc7cccc8c7C(=O)N(C7CCC(=O)NC7=O)C8=O)c6)ncn5)CC4)C3)cc2F)CC1 (stereo not drawn) [Compound 15]	/ (Degradation <10% or stabilization)	/ (Degradation <10% or stabilization)	0.8 ± 0.1	640 ± 30	–	91.2	94.8	97.2	89.4	84.6	–	33 ± 4
CC1(C)CCN(Cc2cc(F)c(N3CC(=O)NC4(CCN(c5cc(NCC6CCN(C(=O)CCCNc7ccc8c(c7)C(=O)N(C7CCC(=O)NC7=O)C8=O)CC6)ncn5)CC4)C3)cc2F)CC1 (stereo not drawn) [Compound 23]	50% and 50 ± 12%	57 ± 8%	1.0 ± 0.1	160 ± 80	–	95.3	93.3	95.2	87.3	78.2	–	33 ± 12
CC1(C)CCN(Cc2cc(F)c(N3CC(=O)NC4(CCN(c5cc(NCCN6CCN(c7cnc(N8CCN(C(=O)CCCNc9cccc%10c9C(=O)N(C9CCC(=O)NC9=O)C%10=O)CC8)nc7)CC6)ncn5)CC4)C3)cc2F)CC1 (stereo not drawn) [Compound 33]	44% and 44 ± 6%	51 ± 19%	0.8 ± 0.1	70 ± 10	–	92.1	90.9	95.3	97.7	89.6	at least 50%	–
CC1(C)CCN(Cc2cc(F)c(N3CC(=O)NC4(CCN(c5cc(NCCCNC(=O)CCCCCCCCn6cc(CNc7cccc8c7C(=O)N(C7CCC(=O)NC7=O)C8=O)nn6)ncn5)CC4)C3)cc2F)CC1 (stereo not drawn) [Compound 12]	/ (Degradation <10% or stabilization)	11 ± 27%	0.7 ± 0.1	320 ± 160	below 1 μM	–	–	–	–	94.3	–	67 ± 21
